What was measured:
[1] = test system: MDA-MB-231 cells; assay: Western blotting of apoptotic proteins; assay type: cell-based, human; conditions: 12, 24 or 48 hours
Protocol: (§1) Western Blotting: Cells were treated with various concentrations of α-santalol and incubated for 12, 24 or 48 hours. Cell lysates were made and subjected to western blot analysis to determine the expression of different proteins.

[2] = test system: MCF-7 cells; assay: Western blotting of apoptotic proteins; assay type: cell-based, human; conditions: 12, 24 or 48 hours
Protocol: as §1

[3] = test system: MDA-MB-231 cells; assay: MTT assay (cell viability); assay type: cell-based, human; conditions: different concentrations and time points
Protocol: (§2) MTT Assay: After treatment with different concentrations of α-santalol for different time points, cells were incubated with MTT and subsequently solubilized in DMSO. Absorbance was measured at 570 nm.

[4] = test system: MCF-7 cells; assay: MTT assay (cell viability); assay type: cell-based, human; conditions: different concentrations and time points
Protocol: as §2

[5] = test system: MDA-MB-231 cells; assay: Cell cycle analysis, propidium iodide flow cytometry; assay type: cell-based, human; conditions: 25 μM-75 μM, 12 hours
Protocol: (§3) Cell Cycle Analysis: After 12 hours of treatment with alpha-santalol, cells were fixed with 70% ethanol in PBS, treated with RNaseA, followed by staining with propidium iodide. Cells were analyzed by flow cytometry to determine cell-cycle distribution.

[6] = test system: MCF-7 cells; assay: as above; assay type: cell-based, human; conditions: 25 μM-75 μM, 12 hours
Protocol: as §3

[7] = test system: MDA-MB-231 cells; assay: BrdU cell proliferation ELISA; assay type: cell-based, human; conditions: 24 and 48 hours
Protocol: (§4) BrdU Cell Proliferation ELISA: Used to quantitate cell proliferation based on the measurement of Brdu incorporation during DNA synthesis in proliferating cells. At the end of 24 and 48 hours of treatment, cells were labeled with BrdU, fixed, denatured, and then incubated with Anti-BrdU POD. Absorbance was measured at 405 nm.

[8] = test system: MCF-7 cells; assay: BrdU cell proliferation ELISA; assay type: cell-based, human; conditions: 24 and 48 hours
Protocol: as §4

[9] = Penetration of α-santalol into porcine mammary papilla without keratin plug removal (Experiment 25); assay type: in vitro ADME; conditions: value (SEM), n=3
Protocol: Experiment procedure—Mammary papillae were setup in FSD and kept for saturation for 12 hours. Then 500 μl of drug formulation was added in the donor. Three 200 μl samples of donor were taken to determine GCMS area of donors. Now 200 μl samples were collected from the receptor on each time point. […] Results may be seen in FIG. 51 and Table 33.

[10] = test system: MDA-MB-231 cells; assay: TUNEL assay and flow cytometry (apoptosis); assay type: cell-based, human
Protocol: (§5) TUNEL Assay and Flow Cytometry: After incubation with alpha-santalol, cells were fixed with paraformaldehyde and ethanol. DNA strand breaks were labeled with BrdUTP. Brdu incorporation at DNA strand breaks was detected by Alexa Fluor 488 dye-labeled anti-BrdU antibodies. Samples were analyzed by Flow Cytometry.

[11] = test system: MCF-7 cells; assay: TUNEL assay and flow cytometry (apoptosis); assay type: cell-based, human
Protocol: as §5

[12] = Topical transmammary delivery of tamoxifen with and without α-santalol via porcine mammary papilla (Experiment 27); assay type: in vitro ADME; conditions: given in combination with α-santalol
Protocol: From the receptor, 200 μl samples were taken at every time point. After 48 hours, tissues were taken, washed, cut in four sections, weighed and solubilized using the tissue solubilizer. After 24 hours, DPM counts were measured from each section of the tissue using scintillation cocktail.

[13] = 6 hours treatment 48 h disposition study

| Tissue retention ([9]; 5% v/v in 2:1 ethanol:PBS, 6 h treatment) | Tissue retention [9, 13] | Tissue retention (% of applied dose) [9, 13] | Tissue retention (% of applied dose) ([9]; 6 h treatment) | Tissue retention ([9]; 48 h treatment) | Tissue retention (% of applied dose) ([9]; 48 h treatment) | Applied dose retained by the tissue [12] | SMILES | Cleavage of apoptotic proteins (western blot) [1] | Cleavage of apoptotic proteins (western blot) [2] | Cell viability (MTT) [3] | Cell viability (MTT) [4] | Cell cycle distribution [5] | Cell cycle distribution [6] | Cell proliferation (BrdU ELISA) [7] | Cell proliferation (BrdU ELISA) [8] | Apoptosis (TUNEL, flow cytometry) [10] | Apoptosis (TUNEL, flow cytometry) [11] |
| --- | --- | --- | --- | --- | --- | --- | --- | --- | --- | --- | --- | --- | --- | --- | --- | --- | --- |
| 5.21 (0.41) μmole/g tissue | 5.34 (0.52) μmole/g tissue | 2.01 (0.12) % of applied dose | 2.20 (0.19) % of applied dose | 35.52 (3.69) μmole/g tissue | 15.30 (2.20) % of applied dose |  | C/C(=C/CCC1(C)C2CC3C(C2)C31C)CO (stereo not drawn) [alpha-santalol] | caspase-3 and PARP cleavage | PARP cleavage | inhibition of cell viability and proliferation in a time and dose-dependent manner | inhibition of cell viability and proliferation in a time and dose-dependent manner | arrested cell cycles at the G2/M phase | arrested cell cycles at the G2/M phase | inhibition of cell viability and proliferation in a time and dose-dependent manner | inhibition of cell viability and proliferation in a time and dose-dependent manner | significantly induced apoptosis | significantly induced apoptosis |
|  |  |  |  |  |  | approximately 40% | CC/C(=C(\c1ccccc1)c1ccc(OCCN(C)C)cc1)c1ccccc1 [tamoxifen] |  |  |  |  |  |  |  |  |  |  |

Reference: patent publication US9220680B2, “Compositions and methods for localized drug delivery through mammary papillae” (South Dakota State University, priority 2012, dated 2015)
